Consider two compounds from PMC11277145, “Wrinkle-Improving Effect of Novel Peptide That Binds to Nicotinic Acetylcholine Receptor” (International Journal of Molecular Sciences, 2024).

Series [1] relates to human cornea model (MCTT HCE^TM). Description: Eye irritation test, human cornea model (MCTT HCE). Format: cell-based. Conditions: methyl acetate (no concentration). The method, then:
To evaluate the eye irritation potential of the peptide, an in vitro experimental model recognized by the OECD as an alternative animal evaluation method, the human cornea model (MCTT HCE^TM), was used. The experiment was conducted according to the standard experimental method provided by the manufacturer, Biosolution (Seoul, Republic of Korea). First, before the experiment, the color interference of the test material was checked, and to begin the experiment, MCTT HCE^TM was incubated for 22 h at 5% CO2 and 37 °C. Next, 40 μL of the peptide was applied to the top of the MCTT HCE^TM and left to react for 10 min. Afterwards, the peptide was removed using DPBS, and MCTT HCE^TM was transferred to a new medium and cultured for 18 h at 5% CO2 and 37 °C. After the culture was completed, 200 μL/well of WST-1 solution diluted at a ratio of 1:25 was added to a new plate, MCTT HCE^TM was transferred thereon, and 100 μL of WST-1 solution was treated inside.

Series [2] has as its system muscle nAChR (TE671 cells expressing nAChRs). The experiment in a line: In vitro intracellular nicotine response assay. The settings on record: 400 μM nicotine; for nicotine response: Fura-2-AM 340/380 nm, positive control, mean of three repeated measurements. It is filed as cell-based, human. The method, then:
TE671 rhabdomyosarcoma cell line was purchased from Korea Cell Line Bank (Seoul, Republic of Korea). Dermal fibroblasts (Hs68) were purchased from American Type Culture Collection. Cells were cultured in Dulbecco’s Modified Eagle’s medium (DMEM) and medium containing 10% fetal bovine serum (FBS), 1% penicillin-streptomycin at 37 °C, and up to 5% CO2. Human skin keratinocytes (HEKn) were purchased from Thermo Fisher Scientific (Waltham, MA, USA) and cultured using keratinocyte growth medium, keratinocyte-SFM supplemented with epidermal growth factor (EGF) and bovine pituitary extract (BPE) at 37 °C, and up to 5% CO2.
TE671 cells were cultured in DMEM and medium containing 10% FBS, 1% penicillin-streptomycin at 37 °C, and up to 5% CO2. An 18 mm coverslip was placed on a 12-well cell culture plate, cultured cells were removed with trypsin, and 1 mL was dispensed into each well to make 2 × 10^4 cells/well, followed by culturing for 4 days. The coverslip with the cultured cells was transferred to a new 12-well plate, mixed with 997 μL of HBSS buffer and 3 μL of Fura-2-AM (Invitrogen, Waltham, MA, USA), and incubated for 15 min. After incubation, the remaining Fura-2-AM was removed by washing three times with HBSS buffer, and 1 mL of HBSS buffer was additionally dispensed. After mounting the coverslip in the chamber (Live Cell Instrument, Namyangju-si, Republic of Korea), 500 μL of HBSS buffer was dispensed, and the peptide and nicotine samples to be tested were adjusted according to the concentration. Then, 10 to 20 cells were selected and captured alternately at 340 nm and 380 nm wavelengths at 500 ms intervals through a fluorescence microscope (DMI3000 B, Leica Microsystems, Wetzlar, Germany). The fluorescence ratio at 340/380 nm was calculated using the LAS X program.

The subject of another series is nAChRs. The settings on record: ref [16]; read-out: IC50 (binds to nAChRs and inhibits the action of ACh); cited from earlier work. The text has this: Muscle contraction is induced by acetylcholine (ACh), a neurotransmitter released from nerve cells. ACh is released into the space between muscles and nerves when synaptic vesicles fuse with the cell membrane through the action of the SNARE (Soluble N-ethylmaleimide-sensitive factor attachment protein receptor) complex within nerve cells. Released ACh binds to nAChR or muscarinic acetylcholine receptor (mAChR) on the muscle cell surface to induce muscle contraction. Facial wrinkles are formed by muscle contraction through the binding of muscle nAChRs (subtypes α1, β1, δ, γ, and ...

`COC(C)=O` [Methyl acetate, reference compound]: in series [1], the “Average absorption, second value” was 0.066 and the “eye irritation judgement (Standard)” value is reported as “Irritant”. The “Cell survival (%Control)” value in series [1] (10 min exposure, 18 h post-culture, WST-1) was determined as 4.70%. The Average absorption in series [1] (mean of N1 and N2) is given as 0.12. In series [1] (replicate N1, WST-1, 450 nm), the “Absorption (N1)” value is 0.102. For the same compound, in series [1] (replicate N2, WST-1, 450 nm), the “Absorption (N2)” value is given as 0.138.
The term IC50 denotes the concentration that inhibits the measured activity by half. “dipeptide diaminobutyroyl benzylamide [SYN®-AKE]”: the nicotine response in series [2] (100 μM) was 98%; in series [2] (250 μM) it was 52.5%; in series [2] (500 μM), 3.5%. Also, the “concentration required to inhibit the nicotinic response” value in series [2] is reported as 500 µM. In addition, the IC50 in the series on nAChRs was 180 µM.
